Results on 31 molecules are retold here after patent publication US12441691B2 (Cytokinetics, Inc., priority 2020, dated 2025).

For this assay, the system named is rabbit skeletal myofibrils (fast skeletal myofibrils). Description: Activation of fast skeletal myofibrils (PUMA assay, AC1.4). Format: biochemical. The settings on record: calcium at pCa25, AC1.4 = concentration at which the compound increased the enzymatic activity. Summed up: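 In 12 mM PIPES pH 6.8 with 2 mM MgCl2 and 1 mM DTT, Triton-washed rabbit skeletal myofibrils were run at the pCa25 calcium level. Myosin-made ADP was recycled through a PK/LDH coupled system; NADH loss read at 340 nm.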

Consider `CC[C@H](C)[C@H]1C(=O)Nc2ccccc2CN1C(=O)[C@H]1CC(=O)N(C)C1` [Compound 194, (S)-3-((S)-sec-butyl)-4-((S)-1-methyl-5-oxopyrrolidine-3-carbonyl)-1,3,4,5-tetrahydro-2H-benzo[e][1,4]diazepin-2-one], for which the AC1.4 is 1.52 µM.

Consider `CC[C@H](C)[C@H]1C(=O)Nc2ccccc2CN1C(=O)CNC(C)=O` [Compound 195, N-(2-((S)-3-((S)-sec-butyl)-2-oxo-1,2,3,5-tetrahydro-4H-benzo[e][1,4]diazepin-4-yl)-2-oxoethyl)acetamide], for which the AC1.4 was determined as 1.84 µM.

As for `CC[C@H](C)[C@H]1C(=O)Nc2ccccc2CN1C(=O)[C@H](C)NC(C)=O` [Compound 196, N-((S)-1-((S)-3-((S)-sec-butyl)-2-oxo-1,2,3,5-tetrahydro-4H-benzo[e][1,4]diazepin-4-yl)-1-oxopropan-2-yl)acetamide], the AC1.4 was 2.09 µM.

On to `CC[C@H](C)[C@H]1C(=O)Nc2ccccc2CN1C(=O)[C@H]1CCCN1C(C)=O` [Compound 197, (S)-4-(acetyl-D-prolyl)-3-((S)-sec-butyl)-1,3,4,5-tetrahydro-2H-benzo[e][1,4]diazepin-2-one], for which the AC1.4 was 1.76 µM.

As for `CC[C@H](C)[C@H]1C(=O)Nc2ccccc2CN1C(=O)[C@@H](C)NC(C)=O` [Compound 198, N-((R)-1-((S)-3-((S)-sec-butyl)-2-oxo-1,2,3,5-tetrahydro-4H-benzo[e][1,4]diazepin-4-yl)-1-oxopropan-2-yl)acetamide], the AC1.4 was 1.66 µM.

Turning to `CC[C@H](C)[C@H]1C(=O)Nc2ccccc2CN1C(=O)CC(C)O` (stereo partly drawn) [Compound 199, (3S)-3-((S)-sec-butyl)-4-(3-hydroxybutanoyl)-1,3,4,5-tetrahydro-2H-benzo[e][1,4]diazepin-2-one], the AC1.4 turned out to be 0.94 µM.

As for `C[C@@H](OCc1ccccc1)[C@H]1C(=O)Nc2ccccc2CN1C(=O)c1cnn(C)c1` [Compound 200, (S)-3-((R)-1-(benzyloxy)ethyl)-4-(1-methyl-1H-pyrazole-4-carbonyl)-1,3,4,5-tetrahydro-2H-benzo[e][1,4]diazepin-2-one], the AC1.4 was 4.22 µM.

As for `CC[C@H](C)[C@H]1C(=O)Nc2ccccc2CN1C(=O)COc1ccccc1C(N)=O` [Compound 201, 2-(2-((S)-3-((S)-sec-butyl)-2-oxo-1,2,3,5-tetrahydro-4H-benzo[e][1,4]diazepin-4-yl)-2-oxoethoxy)benzamide], the AC1.4 is 0.05 µM.

Take `CC[C@H](C)[C@H]1C(=O)Nc2ccccc2CN1C(=O)Nc1ccc(NC(C)=O)nc1` [Compound 202, (S)-N-(6-acetamidopyridin-3-yl)-3-((S)-sec-butyl)-2-oxo-1,2,3,5-tetrahydro-4H-benzo[e][1,4]diazepine-4-carboxamide]: the AC1.4 was 0.17 µM.

`CC[C@H](C)[C@H]1C(=O)Nc2ccccc2CN1C(=O)NCCO` [Compound 203, (S)-3-((S)-sec-butyl)-N-(2-hydroxyethyl)-2-oxo-1,2,3,5-tetrahydro-4H-benzo[e][1,4]diazepine-4-carboxamide]: the AC1.4 was 1.75 µM.

`CC[C@H](C)[C@H]1C(=O)Nc2ccccc2CN1C(=O)NCC(N)=O` [Compound 204, (S)-N-(2-amino-2-oxoethyl)-3-((S)-sec-butyl)-2-oxo-1,2,3,5-tetrahydro-4H-benzo[e][1,4]diazepine-4-carboxamide]: the AC1.4 came to 3.66 µM.

Regarding `CC[C@H](C)[C@H]1C(=O)Nc2ccccc2CN1C(=O)NCCC(N)=O` [Compound 205, (S)-N-(3-amino-3-oxopropyl)-3-((S)-sec-butyl)-2-oxo-1,2,3,5-tetrahydro-4H-benzo[e][1,4]diazepine-4-carboxamide], the AC1.4 worked out at 1.58 µM.

As for `CC[C@H](C)[C@H]1C(=O)Nc2ccccc2CN1C(=O)NCC(=O)NC` [Compound 206, (S)-3-((S)-sec-butyl)-N-(2-(methylamino)-2-oxoethyl)-2-oxo-1,2,3,5-tetrahydro-4H-benzo[e][1,4]diazepine-4-carboxamide], the AC1.4 worked out at 4.98 µM.

Regarding `CC[C@H](C)[C@H]1C(=O)Nc2ccccc2CN1C(=O)NC[C@H](O)CO` [Compound 207, (S)-3-((S)-sec-butyl)-N-((S)-2,3-dihydroxypropyl)-2-oxo-1,2,3,5-tetrahydro-4H-benzo[e][1,4]diazepine-4-carboxamide], the AC1.4 was 3.62 µM.

Consider `CC[C@H](C)[C@H]1C(=O)Nc2ccccc2CN1C(=O)NC[C@@H](O)CO` [Compound 208, (S)-3-((S)-sec-butyl)-N-((R)-2,3-dihydroxypropyl)-2-oxo-1,2,3,5-tetrahydro-4H-benzo[e][1,4]diazepine-4-carboxamide], for which the AC1.4 is 2.70 µM.

Take `CC[C@H](C)[C@H]1C(=O)Nc2ccccc2CN1C(=O)N[C@@H]1CCNC1=O` [Compound 209, (S)-3-((S)-sec-butyl)-2-oxo-N-((R)-2-oxopyrrolidin-3-yl)-1,2,3,5-tetrahydro-4H-benzo[e][1,4]diazepine-4-carboxamide]: the AC1.4 is 4.17 µM.

`CC[C@H](C)[C@H]1C(=O)Nc2ccccc2CN1C(=O)N[C@H]1CCNC1=O` [Compound 210, (S)-3-((S)-sec-butyl)-2-oxo-N-((S)-2-oxopyrrolidin-3-yl)-1,2,3,5-tetrahydro-4H-benzo[e][1,4]diazepine-4-carboxamide]: the AC1.4 was 4.25 µM.

Consider `CC[C@H](C)[C@H]1C(=O)Nc2ccccc2CN1C(=O)NCCNC(C)=O` [Compound 211, (S)-N-(2-acetamidoethyl)-3-((S)-sec-butyl)-2-oxo-1,2,3,5-tetrahydro-4H-benzo[e][1,4]diazepine-4-carboxamide], for which the AC1.4 came out at 2.92 µM.

Turning to `CC[C@H](C)[C@H]1C(=O)Nc2ccccc2CN1C(=O)NCCNC(N)=O` [Compound 212, (S)-3-((S)-sec-butyl)-2-oxo-N-(2-ureidoethyl)-1,2,3,5-tetrahydro-4H-benzo[e][1,4]diazepine-4-carboxamide], the AC1.4 amounted to 1.27 µM.

Take `CC[C@H](C)[C@H]1C(=O)Nc2ccccc2CN1C(=O)NCC[S+](C)[O-]` (stereo partly drawn) [Compound 213, (3S)-3-((S)-sec-butyl)-N-(2-(methylsulfinyl)ethyl)-2-oxo-1,2,3,5-tetrahydro-4H-benzo[e][1,4]diazepine-4-carboxamide]: the AC1.4 stood at 4.04 µM.

For the molecule `CC[C@H](C)[C@H]1C(=O)Nc2ccccc2CN1C(=O)NCc1cncn1C` [Compound 214, (S)-3-((S)-sec-butyl)-N-((1-methyl-1H-imidazol-5-yl)methyl)-2-oxo-1,2,3,5-tetrahydro-4H-benzo[e][1,4]diazepine-4-carboxamide], the AC1.4 was determined as 1.72 µM.

On to `CC[C@H](C)[C@H]1C(=O)Nc2ccccc2CN1C(=O)NC[C@H]1CCC(=O)N1` [Compound 215, (S)-3-((S)-sec-butyl)-2-oxo-N-(((R)-5-oxopyrrolidin-2-yl)methyl)-1,2,3,5-tetrahydro-4H-benzo[e][1,4]diazepine-4-carboxamide], for which the AC1.4 was determined as 4.65 µM.

As to `CC[C@H](C)[C@H]1C(=O)Nc2ccccc2CN1C(=O)N[C@H]1CCCNC1=O` [Compound 216, (S)-3-((S)-sec-butyl)-2-oxo-N-((S)-2-oxopiperidin-3-yl)-1,2,3,5-tetrahydro-4H-benzo[e][1,4]diazepine-4-carboxamide], the AC1.4 was determined as 2.64 µM.

Take `CC[C@H](C)[C@H]1C(=O)Nc2ccccc2CN1C(=O)N[C@@H]1CCCNC1=O` [Compound 217, (S)-3-((S)-sec-butyl)-2-oxo-N-((R)-2-oxopiperidin-3-yl)-1,2,3,5-tetrahydro-4H-benzo[e][1,4]diazepine-4-carboxamide]: the AC1.4 was found to be 2.45 µM.

Take `CC[C@H](C)[C@H]1C(=O)Nc2ccccc2CN1C(=O)N[C@@H]1CCC(=O)NC1` [Compound 218, (S)-3-((S)-sec-butyl)-2-oxo-N-((R)-6-oxopiperidin-3-yl)-1,2,3,5-tetrahydro-4H-benzo[e][1,4]diazepine-4-carboxamide]: the AC1.4 came out at 0.88 µM.

In the case of `CC[C@H](C)[C@H]1C(=O)Nc2ccccc2CN1C(=O)N[C@H]1CCC(=O)NC1` [Compound 219, (S)-3-((S)-sec-butyl)-2-oxo-N-((S)-6-oxopiperidin-3-yl)-1,2,3,5-tetrahydro-4H-benzo[e][1,4]diazepine-4-carboxamide], the AC1.4 was determined as 2.10 µM.

With `CC[C@H](C)[C@H]1C(=O)Nc2ccccc2CN1C(=O)NCCS(C)(=O)=O` [Compound 220, (S)-3-((S)-sec-butyl)-N-(2-(methylsulfonyl)ethyl)-2-oxo-1,2,3,5-tetrahydro-4H-benzo[e][1,4]diazepine-4-carboxamide], the AC1.4 is 3.01 µM.

Take `CC[C@H](C)[C@H]1C(=O)Nc2ccccc2CN1C(=O)NCCS(N)(=O)=O` [Compound 221, (S)-3-((S)-sec-butyl)-2-oxo-N-(2-sulfamoylethyl)-1,2,3,5-tetrahydro-4H-benzo[e][1,4]diazepine-4-carboxamide]: the AC1.4 stood at 1.80 µM.

On to `CC[C@H](C)[C@H]1C(=O)Nc2ccccc2CN1C(=O)NCCN1CC[C@@H](O)C1` [Compound 222, (S)-3-((S)-sec-butyl)-N-(2-((R)-3-hydroxypyrrolidin-1-yl)ethyl)-2-oxo-1,2,3,5-tetrahydro-4H-benzo[e][1,4]diazepine-4-carboxamide], for which the AC1.4 was 2.02 µM.

`CC[C@H](C)[C@H]1C(=O)Nc2ccccc2CN1C(=O)NCCN1CC[C@H](O)C1` [Compound 223, (S)-3-((S)-sec-butyl)-N-(2-((S)-3-hydroxypyrrolidin-1-yl)ethyl)-2-oxo-1,2,3,5-tetrahydro-4H-benzo[e][1,4]diazepine-4-carboxamide]: the AC1.4 is 1.43 µM.

Take `CC[C@H](C)[C@H]1C(=O)Nc2ccccc2CN1C(=O)NC1CCS(=O)(=O)C1` (stereo partly drawn) [Compound 224, (3S)-3-((S)-sec-butyl)-N-(1,1-dioxoidotetrahydrothiophen-3-yl)-2-oxo-1,2,3,5-tetrahydro-4H-benzo[e][1,4]diazepine-4-carboxamide]: the AC1.4 worked out at 2.85 µM.
